In brackets after ≈: the same amount, converted by molar mass.

Series [1] can be described thus: Kinetic solubility in aqueous media (nephelometry). In kind it is physicochemical. To be noted: phosphate citrate buffer, pH 7.4, aqueous buffer, kinetic from dmso stock, phosphate citrate buffer pH 7.4, turbidity of three dilution steps; read-out: Solubility Score. As to the method: Kinetic solubility in aqueous media measures the ability of a compound to stay in aqueous solution upon dilution (see example C.3).
DMSO-stock solutions are diluted with a single aqueous buffer solvent in 3 consecutive steps. For every dilution turbidity is measured with a nephelometer.
In the first dilution step, 10 μl of a concentrated stock-solution of the active compound, solubilized in DMSO (5 mM), was added to 100 μl phosphate citrate buffer pH 7.4 and mixed. In the second dilution step, an aliquot (20 μl) of the first dilution step was further dispensed in 100 μl phosphate citrate buffer pH 7.4 and mixed. Finally, in the third dilution step, a sample (20 μl) of the second dilution step was further diluted in 100 μl phosphate citrate buffer pH 7.4 and mixed. All dilutions were performed in 96-well plates. Immediately after the last dilution step the turbidity of the three consecutive dilution steps were measured with a nephelometer. Dilution was done in triplicate for each compound to exclude occasional errors. Based on the turbidity measurements a ranking is performed into 3 classes. Compounds with high solubility obtained a score of 3 and for this compounds the first dilution is clear. Compounds with medium solubility obtained a score of 2. For these compounds the first dilution is unclear and the second dilution is clear. […] The solubility of 112 compounds was measured.

In series [2] the target is histone deacetylase (HeLa nuclear extracts). In words: In vitro assay for inhibition of histone deacetylase. In kind it is biochemical. The settings on record: [3H]acetylated histone H4 peptide substrate. As to the method:
The in vitro assay for inhibition of histone deacetylase (see example C.1) measures the inhibition of HDAC enzymatic activity obtained with the compounds of formula (I).
HeLa nuclear extracts (supplier: Biomol) were incubated at 60 μg/ml with 2×10^−8 M of radiolabeled peptide substrate. As a substrate for measuring HDAC activity a synthetic peptide, i.e. the amino acids 14–21 of histone H4, was used. The substrate is biotinylated at the NH2-terminal part with a 6-aminohexanoic acid spacer, and is protected at the COOH-terminal part by an amide group and specifically [^3H]acetylated at lysine 16. The substrate, biotin-(6-aminohexanoic)Gly-Ala-([^3H]-acetyl-Lys-Arg-His-Arg-Lys-Val-NH2), was added in a buffer containing 25 mM Hepes, 1 M sucrose, 0.1 mg/ml BSA and 0.01% Triton X-100 at pH 7.4. After 30 min the deacetylation reaction was terminated by the addition of HCl and acetic acid. (final concentration 0.035 mM and 3.8 mM respectively). After stopping the reaction, the free ^3H-acetate was extracted with ethylacetate. After mixing and centrifugation, the radioactivity in an aliquot of the upper (organic) phase was counted in a β-counter.
For each experiment, controls (containing HeLa nuclear extract and DMSO without compound), a blank incubation (containing DMSO but no HeLa nuclear extract or compound) and samples (containing compound dissolved in DMSO and HeLa nuclear extract) were run in parallel. In first instance, compounds were tested at a concentration of 10^−5M. […] In each test the blank value was substracted from both the control and the sample values. The control sample represented 100% of substrate deactylation. For each sample the radioactivity was expressed as a percentage of the mean value of the controls. […] Herein the effects of test compounds are expressed as pIC50 (the negative log value of the IC50-value).

The subject of series [3] is A2780 ovarian carcinoma cells. In words: Antiproliferative activity on A2780 cells (MTT). The format is cell-based, human. To be noted: Homo sapiens, A2780, 96 h, four days of incubation, read-out: Cellular activity pIC50 (converted). As to the method:
Cellular activity of the compounds of formula (I) was determined on A2780 tumour cells using a colorimetric assay for cell toxicity or survival (Mosmann Tim, Journal of Immunological Methods 65: 55–63, 1983)(see example C.2).
All compounds tested were dissolved in DMSO and further dilutions were made in culture medium. Final DMSO concentrations never exceeded 0.1% (v/v) in cell proliferation assays. Controls contained A2780 cells and DMSO without compound and blanks contained DMSO but no cells. MTT was dissolved at 5 mg/ml in PBS. A glycine buffer comprised of 0.1 M glycine and 0.1 M NaCl buffered to pH 10.5 with NaOH (1 N) was prepared (all reagents were from Merck).
The human A2780 ovarian carcinoma cells (a kind gift from Dr. T. C. Hamilton [Fox Chase Cancer Centre, Pennsylvania, USA]) were cultured in RPMI 1640 medium supplemented with 2 mM L-glutamine, 50 μg/ml gentamicin and 10% fetal calf serum. Cells were routinely kept as monolayer cultures at 37° C. in a humidified 5% CO2 atmosphere. Cells were passaged once a week using a trypsin/EDTA solution at a split ratio of 1:40. All media and supplements were obtained from Life Technologies. Cells were free of mycoplasma contamination as determined using the Gen-Probe Mycoplasma Tissue Culture kit (supplier: BioMérieux).
Cells were seeded in NUNC™ 96-well culture plates (Supplier: Life Technologies) and allowed to adhere to the plastic overnight. Densities used for plating were 1500 cells per well in a total volume of 200 μl medium. After cell adhesion to the plates, medium was changed and drugs and/or solvents were added to a final volume of 200 μl. Following four days of incubation, medium was replaced by 200 μl fresh medium and cell density and viability was assessed using an MTT-based assay. To each well, 25 μl MTT solution was added and the cells were further incubated for 2 hours at 37° C. The medium was then carefully aspirated and the blue MTT-formazan product was solubilized by addition of 25 μl glycine buffer followed by 100 μl of DMSO. […] Within an experiment, the results for each experimental condition are the mean of 3 replicate wells. For initial screening purposes, compounds were tested at a single fixed concentration of 10^−6 M. For active compounds, the experiments were repeated to establish full concentration-response curves. For each experiment, controls (containing no drug) and a blank incubation (containing no cells or drugs) were run in parallel. The blank value was subtracted from all control and sample values. For each sample, the mean value for cell growth (in absorbance units) was expressed as a percentage of the mean value for cell growth of the control. […] Herein the effects of test compounds are expressed as pIC50 (the negative log value of the IC50-value).

The term solubility denotes how much of the substance goes into solution per volume. For the molecule `O=C(NO)c1ccc(N2CCN(S(=O)(=O)c3ccc(Br)cc3)CC2)cc1` [Compound 78], in series [1], the solubility lay in the range of 75.8 to 454 µM (≈ 33.4 to 200 µg/mL). Besides, in series [2], the “Enzyme activity pIC50” value turned out to be 6.306. Besides, the IC50 in series [3] was 1250 nM.
Turning to `O=C(NO)c1cnc(N2CCN(S(=O)(=O)c3ccc(-c4cccc5c4sc4ccccc45)cc3)CC2)nc1` [Compound 130], the solubility in series [1] lay within 75.8 to 454 µM (≈ 41.4 to 248 µg/mL). Further, the “Enzyme activity pIC50” value in series [2] is given as 6.159. For the same molecule, the IC50 in series [3] was 752 nM.
As for `O=C(NO)c1cnc(N2CCN(S(=O)(=O)c3ccc(-c4ccc(F)cc4)cc3)CC2)nc1` [Compound 178], the solubility in series [1] was below 75.8 µM. Moreover, in series [2], the “Enzyme activity pIC50” value is listed as 7.99. Also, the IC50 in series [3] is 75.5 nM.
The matching figures for `CS(=O)(=O)c1ccccc1S(=O)(=O)N1CCN(c2ccc(C(=O)NO)cc2)CC1` [Compound 60]: above 454 µM, 6.247 and 4530 nM.
The matching figures for `O=C(NO)c1cnc(N2CCN(S(=O)(=O)c3ccc(-c4ccc(Cl)c(Cl)c4)cc3)CC2)nc1` [Compound 177]: below 75.8 µM, 6.428 and 308 nM.
In the case of `NCCNC(=O)c1ccc(N2CCN(S(=O)(=O)c3ccc4ccccc4c3)CC2)cc1` [Compound 18], in series [1], the solubility was below 75.8 µM. In series [2], the “Enzyme activity pIC50” value is below 5. Also, the IC50 in series [3] is 4080 nM.
For `COc1cccc(-c2ccc(S(=O)(=O)N3CCN(c4ncc(C(=O)NO)cn4)CC3)cc2)c1` [Compound 15], in series [1], the solubility was in the range of 75.8 to 454 µM (≈ 35.6 to 213 µg/mL). Besides, in series [2], the “Enzyme activity pIC50” value is listed as 7.332. For the same molecule, the IC50 in series [3] was 107 nM.
Turning to `O=C(NO)c1ccc(N2CCN(S(=O)(=O)c3ccc(Cl)cc3)CC2)cc1` [Compound 76], in series [1], the solubility was below 75.8 µM. For the same molecule, the “Enzyme activity pIC50” value in series [2] was 6.227. Further, the IC50 in series [3] was 1360 nM.
Take `O=C(NO)c1cnc(N2CCN(S(=O)(=O)c3ccc(-c4cccc(CN5CCCC5)c4)cc3)CC2)nc1` [Compound 171]: the solubility in series [1] is above 454 µM. Moreover, in series [2], the “Enzyme activity pIC50” value worked out at 8.45. Besides, the IC50 in series [3] was 47.1 nM.
Regarding `O=C(NO)c1ccc(N2CCN(S(=O)(=O)c3cccc(F)c3)CC2)cc1` [Compound 61], the solubility in series [1] fell in the range of 75.8 to 454 µM (≈ 28.8 to 172 µg/mL). The “Enzyme activity pIC50” value in series [2] is 6.255. The IC50 in series [3] was 2790 nM.
On to `O=C(NO)c1cnc(N2CCN(S(=O)(=O)c3ccc(-c4ccccc4)cc3)CC2)nc1` [Compound 128], for which the solubility in series [1] is 75.8 to 454 µM (≈ 33.3 to 200 µg/mL). In series [2], the “Enzyme activity pIC50” value worked out at 8.078. Also, in series [3], the IC50 is 81.3 nM.
The matching figures for `Cc1cc(C)cc(-c2ccc(S(=O)(=O)N3CCN(c4ncc(C(=O)NO)cn4)CC3)cc2)c1` [Compound 136]: below 75.8 µM, 7.288 and 513 nM.
Turning to `CN(C)CCN(C)Cc1ccccc1-c1ccc(S(=O)(=O)N2CCN(c3ncc(C(=O)NO)cn3)CC2)cc1` [Compound 159], in series [1], the solubility was above 454 µM. In addition, the “Enzyme activity pIC50” value in series [2] is 8.61. For the same molecule, in series [3], the IC50 was 95.9 nM.
On to `O=C(NO)c1cnc(N2CCN(S(=O)(=O)N3CCOCC3)CC2)nc1` [Compound 14], for which, in series [1], the solubility is above 454 µM. The “Enzyme activity pIC50” value in series [2] is 6.621. Also, the IC50 in series [3] is 5790 nM.
The matching figures for `O=C(NO)c1cnc(N2CCN(S(=O)(=O)c3ccc(-c4ccsc4CN(CCO)CCO)cc3)CC2)nc1` [Compound 145]: below 75.8 µM, 8.06 and 279 nM.
The matching figures for `O=C(NO)c1ccc(CN2CCN(S(=O)(=O)c3ccc4ccccc4c3)CC2)cc1` [Compound 88]: above 454 µM, 6.481 and 2840 nM.
Turning to `CN(C)CCc1cccc(-c2ccc(S(=O)(=O)N3CCN(c4ncc(C(=O)NO)cn4)CC3)cc2)c1` [Compound 172], in series [1], the solubility is above 454 µM. The “Enzyme activity pIC50” value in series [2] stood at 8.566. Further, the IC50 in series [3] is 64.4 nM.
Consider `O=C(NO)c1cnc(N2CCN(S(=O)(=O)c3ccc(-c4ccsc4CN4CCN(CCO)CC4)cc3)CC2)nc1` [Compound 152], for which, in series [1], the solubility is above 454 µM. Besides, the “Enzyme activity pIC50” value in series [2] worked out at 8.156. The IC50 in series [3] is 164 nM.
For the molecule `O=C(NO)c1cnc(N2CCN(S(=O)(=O)c3ccc(-c4ccc(Cl)cc4)cc3)CC2)nc1` [Compound 184], the solubility in series [1] was below 75.8 µM. Further, in series [2], the “Enzyme activity pIC50” value came out at 7.22. In series [3], the IC50 is 62.8 nM.
In the case of `CN1CCN(Cc2ccccc2-c2ccc(S(=O)(=O)N3CCN(c4ncc(C(=O)NO)cn4)CC3)cc2)CC1` [Compound 157], the solubility in series [1] is above 454 µM. Also, in series [2], the “Enzyme activity pIC50” value came out at 8.228. Moreover, in series [3], the IC50 was 96.2 nM.
`O=C(NO)c1cnc(N2CCN(S(=O)(=O)c3ccc(-c4ccsc4CN4CCN(CCOCCO)CC4)cc3)CC2)nc1` [Compound 150]: the solubility in series [1] was 75.8 to 454 µM (≈ 47.9 to 287 µg/mL). The “Enzyme activity pIC50” value in series [2] was 8.011. In addition, the IC50 in series [3] was 164 nM.
`O=C(NO)c1cnc(N2CCN(S(=O)(=O)c3ccc(-c4ccc(CN5CCN(CCOCCO)CC5)cc4)cc3)CC2)nc1` [Compound 165]: the solubility in series [1] was below 75.8 µM. In series [2], the “Enzyme activity pIC50” value turned out to be 7.947. Further, the IC50 in series [3] is 55.6 nM.
Consider `O=C(NO)c1cnc(N2CCN(S(=O)(=O)c3ccc(-c4cccc5cccnc45)cc3)CC2)nc1` [Compound 111], for which the solubility in series [1] is below 75.8 µM. The “Enzyme activity pIC50” value in series [2] was 7.561. Besides, the IC50 in series [3] was 440 nM.
With `CCCc1ccc(S(=O)(=O)N2CCN(c3ccc(C(=O)NO)cc3)CC2)cc1` [Compound 63], the solubility in series [1] is below 75.8 µM. Moreover, the “Enzyme activity pIC50” value in series [2] was 6.215. In addition, the IC50 in series [3] is 1860 nM.
On to `COc1ccc(S(=O)(=O)N2CCN(c3ncc(C(=O)NO)cn3)CC2)cc1OC` [Compound 96], for which the solubility in series [1] is above 454 µM. Besides, the “Enzyme activity pIC50” value in series [2] came out at 7.49. For the same molecule, the IC50 in series [3] was 335 nM.
The matching figures for `O=C(NO)c1cnc(N2CCN(S(=O)(=O)c3ccc(-c4ccccc4OCCN4CCCC4)cc3)CC2)nc1` [Compound 125]: 75.8 to 454 µM (≈ 41.9 to 251 µg/mL), 8.659 and 93.1 nM.

Source of the values: patent publication US7205304B2, “Sulfonyl-Derivatives as novel inhibitors of histone deacetylase” (Janssen Pharmaceutica N.V., priority 2002, dated 2007).
